From patent US20050214375A1, “Process for producing block copolymer/drug composite” (priority 2002, published 2005)
Structures can show the parent of a compound that is named as a salt. Where two headings read alike, the source gives them in different places.

System: Colon 26 adenocarcinoma cells
Conditions: intravenous; for T/C (%) volume ratio of tumor against control groups 14 days after administration: CDF1 female mouse, Colon 26
Procedure: Colon 26 adenocarcinoma cells were transplanted subcutaneously in the subaxillary region of each CDF1 female mouse. When the volume of the tumor reached around 100 mm^3, the block copolymer-drug composite obtained in Example 1 or doxorubicin hydrochloride was administered intravenously. […] The antitumor effect of the drug was judged from the number of mice showing disappearance of tumor (cured) 60 days after transplantation and the tumor proliferation inhibition ratio 14 days after administration.

SMILES: COc1cccc2c1C(=O)c1c(O)c3c(c(O)c1C2=O)C[C@@](O)(C(=O)CO)C[C@@H]3O[C@H]1C[C@H](N)[C@H](O)[C@H](C)O1 [Doxorubicin hydrochloride, doxorubicin hydrochloride]
- Cure/n: number of mice showing cure after 60 days observation period/number in one group (dose 19.2 mg/kg): 2/10
- Tox./n: number of mice died with toxicity/number in one group (dose 19.2 mg/kg): 0/10
- T/C (%) volume ratio of tumor against control groups 14 days after administration (dose 19.2 mg/kg): 13.5%
- Cure/n: number of mice showing cure after 60 days observation period/number in one group (dose 24.0 mg/kg): 4/10
- Tox./n: number of mice died with toxicity/number in one group (dose 24.0 mg/kg): 0/10
- T/C (%) volume ratio of tumor against control groups 14 days after administration (dose 24.0 mg/kg): 6.4%
- Cure/n: number of mice showing cure after 60 days observation period/number in one group (dose 30.0 mg/kg): 3/10
- Tox./n: number of mice died with toxicity/number in one group (dose 30.0 mg/kg): 1/10
- T/C (%) volume ratio of tumor against control groups 14 days after administration (dose 30.0 mg/kg): 9.9%
